Source: PMC2213532 (The Journal of Experimental Medicine, 2000)
Residues, ends and D or L forms follow the SMILES beside them.

Tests used:
soluble H-2D^b [1] = molecular target: soluble H-2D^b (Mus musculus, UniProt P01899); assay: biochemical; type: binding
soluble H-2D^b [2] = assay: radioligand binding

Sequence of soluble H-2D^b (Mus musculus, UniProt P01899) (P01899 25-362): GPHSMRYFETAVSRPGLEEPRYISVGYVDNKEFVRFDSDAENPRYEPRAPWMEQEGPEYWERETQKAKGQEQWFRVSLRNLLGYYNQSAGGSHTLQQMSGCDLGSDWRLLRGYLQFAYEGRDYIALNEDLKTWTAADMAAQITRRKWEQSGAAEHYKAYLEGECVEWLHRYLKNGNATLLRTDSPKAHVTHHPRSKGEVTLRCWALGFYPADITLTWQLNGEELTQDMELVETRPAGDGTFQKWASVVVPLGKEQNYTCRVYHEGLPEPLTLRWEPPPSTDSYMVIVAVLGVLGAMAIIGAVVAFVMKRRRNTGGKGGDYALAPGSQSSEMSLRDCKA
Sequence of soluble H-2D^b (Mus musculus, UniProt P01899) (P01887 21-119, further chain): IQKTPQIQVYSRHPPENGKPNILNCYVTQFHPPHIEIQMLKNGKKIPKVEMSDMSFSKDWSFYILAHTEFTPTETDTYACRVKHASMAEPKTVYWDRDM

Compound	IC50 (soluble H-2D^b [1]) [nM]	IC50 (soluble H-2D^b [2]) [nM]
CSCC[C@H](NC(=O)[C@@H](NC(=O)[C@H](CC(=O)O)NC(=O)[C@H](CCSC)NC(=O)[C@H](CC(N)=O)NC(=O)[C@H](CCC(=O)O)NC(=O)[C@H](CC(N)=O)NC(=O)[C@H](CO)NC(=O)[C@H](C)N)[C@@H](C)O)C(=O)O [NP366-374] (H-ASNENMDTM-OH)	6	–
NP_(366-374) peptide of A/Memphis/102/72	–	6
